Source: ChEMBL document CHEMBL5465560, “Selectivity Literature for EUbOPEN Chemogenomic Library” (2024)
Numbering of substitutions follows the chain as printed.

Key:
[1] = molecular target: Proto-oncogene tyrosine-protein kinase ROS (Homo sapiens) (UniProt P08922); experiment: Selectivity interaction (KinomeScan (DiscoverX)) EUB0000595a ROS1; settings: at 10 µM
[2] = system: Receptor-type tyrosine-protein kinase FLT3 (Homo sapiens), P36888 [UNDEFINED MUTATION]; experiment: (§1) Selectivity interaction (KinomeScan (DiscoverX)) EUB0001619a FLT3; settings: at 1 µM
[3] = system: T1, Receptor-type tyrosine-protein kinase FLT3 (Homo sapiens), P36888 [K663Q]; experiment: as §1; settings: at 1 µM
T1 sequence (whole entry): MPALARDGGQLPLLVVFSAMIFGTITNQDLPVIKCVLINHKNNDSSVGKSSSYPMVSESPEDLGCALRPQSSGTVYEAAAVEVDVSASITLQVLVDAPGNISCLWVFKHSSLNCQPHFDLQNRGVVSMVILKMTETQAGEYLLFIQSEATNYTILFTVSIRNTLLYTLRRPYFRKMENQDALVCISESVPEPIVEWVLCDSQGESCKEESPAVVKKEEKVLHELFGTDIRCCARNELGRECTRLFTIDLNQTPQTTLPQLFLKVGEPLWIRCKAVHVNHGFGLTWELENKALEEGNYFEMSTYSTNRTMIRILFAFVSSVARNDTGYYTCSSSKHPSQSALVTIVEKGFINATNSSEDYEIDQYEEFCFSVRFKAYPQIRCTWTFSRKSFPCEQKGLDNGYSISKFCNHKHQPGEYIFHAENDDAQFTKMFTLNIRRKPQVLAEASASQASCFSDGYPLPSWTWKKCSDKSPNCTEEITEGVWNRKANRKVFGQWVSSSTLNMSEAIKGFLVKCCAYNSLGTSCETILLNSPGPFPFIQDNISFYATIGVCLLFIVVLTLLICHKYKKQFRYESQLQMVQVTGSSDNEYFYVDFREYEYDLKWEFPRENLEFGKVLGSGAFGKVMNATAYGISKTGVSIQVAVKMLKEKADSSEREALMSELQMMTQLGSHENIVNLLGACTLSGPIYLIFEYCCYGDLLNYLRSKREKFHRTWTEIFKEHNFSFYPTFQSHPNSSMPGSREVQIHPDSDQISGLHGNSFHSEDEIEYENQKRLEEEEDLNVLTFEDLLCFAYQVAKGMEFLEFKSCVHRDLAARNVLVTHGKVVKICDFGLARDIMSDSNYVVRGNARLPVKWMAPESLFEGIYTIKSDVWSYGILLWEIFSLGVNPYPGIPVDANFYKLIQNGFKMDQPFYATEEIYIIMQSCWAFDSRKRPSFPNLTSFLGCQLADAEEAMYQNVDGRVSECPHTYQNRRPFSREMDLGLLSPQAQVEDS

[4] = system: T2, Receptor-type tyrosine-protein kinase FLT3 (Homo sapiens), P36888 [D835H]; experiment: as §1; settings: at 1 µM
T2 sequence (whole entry): T1 sequence (whole entry) with Q663K, D835H

[5] = molecular target: Phosphatidylinositol 4-kinase beta (Homo sapiens, UniProt Q9UBF8); experiment: Selectivity interaction (Kinase panel (literature)) EUB0001199aCl PI4KB; settings: at 1 µM
Sequence of Phosphatidylinositol 4-kinase beta (Q9UBF8 2-816 limits assumed): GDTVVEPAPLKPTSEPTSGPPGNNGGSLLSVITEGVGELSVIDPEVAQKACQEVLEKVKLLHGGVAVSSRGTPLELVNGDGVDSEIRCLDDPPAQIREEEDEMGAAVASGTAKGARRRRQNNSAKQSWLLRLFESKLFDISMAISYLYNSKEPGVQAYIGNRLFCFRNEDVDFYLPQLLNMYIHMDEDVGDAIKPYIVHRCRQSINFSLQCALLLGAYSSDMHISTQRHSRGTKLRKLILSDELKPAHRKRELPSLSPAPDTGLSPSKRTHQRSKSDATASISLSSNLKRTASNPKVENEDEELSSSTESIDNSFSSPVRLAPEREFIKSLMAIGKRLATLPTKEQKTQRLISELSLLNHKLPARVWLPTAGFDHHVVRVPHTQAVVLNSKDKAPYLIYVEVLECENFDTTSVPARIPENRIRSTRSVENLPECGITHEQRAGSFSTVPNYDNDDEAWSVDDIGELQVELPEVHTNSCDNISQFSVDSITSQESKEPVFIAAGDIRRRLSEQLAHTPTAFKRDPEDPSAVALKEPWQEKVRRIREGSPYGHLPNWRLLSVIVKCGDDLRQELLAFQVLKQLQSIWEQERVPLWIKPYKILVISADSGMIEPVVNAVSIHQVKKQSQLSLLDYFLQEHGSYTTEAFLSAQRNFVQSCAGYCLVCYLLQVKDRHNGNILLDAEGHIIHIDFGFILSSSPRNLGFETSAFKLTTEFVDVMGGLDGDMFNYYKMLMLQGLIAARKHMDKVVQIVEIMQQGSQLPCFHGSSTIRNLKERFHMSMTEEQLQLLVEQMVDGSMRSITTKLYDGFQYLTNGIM

[6] = molecular target: 5'-AMP-activated protein kinase catalytic subunit alpha-1 (Homo sapiens, UniProt Q13131); experiment: Selectivity interaction (ActivX KiNativ screen (kinase selectivity in THP-1 cell lysates)) EUB0000639a PRKAA1; format: subcellular; settings: lysate, at 0.2 µM
Sequence of 5'-AMP-activated protein kinase catalytic subunit alpha-1 (Q13131 whole entry, looked up): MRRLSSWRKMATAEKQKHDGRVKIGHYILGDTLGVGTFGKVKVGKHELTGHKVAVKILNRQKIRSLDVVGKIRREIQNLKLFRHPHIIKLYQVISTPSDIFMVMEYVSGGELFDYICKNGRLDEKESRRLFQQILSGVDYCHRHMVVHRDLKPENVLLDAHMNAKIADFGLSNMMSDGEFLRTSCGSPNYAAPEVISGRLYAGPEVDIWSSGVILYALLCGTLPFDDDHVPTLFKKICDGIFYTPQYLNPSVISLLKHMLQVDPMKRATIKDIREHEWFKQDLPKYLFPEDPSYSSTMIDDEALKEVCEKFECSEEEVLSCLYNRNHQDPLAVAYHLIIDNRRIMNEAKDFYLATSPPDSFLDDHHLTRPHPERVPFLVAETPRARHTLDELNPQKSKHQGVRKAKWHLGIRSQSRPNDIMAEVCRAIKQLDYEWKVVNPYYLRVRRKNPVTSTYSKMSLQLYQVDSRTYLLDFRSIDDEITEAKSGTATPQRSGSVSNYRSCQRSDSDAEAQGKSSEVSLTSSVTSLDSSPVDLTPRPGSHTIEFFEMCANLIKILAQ

Sequence of Proto-oncogene tyrosine-protein kinase ROS (Homo sapiens) (P08922 whole entry): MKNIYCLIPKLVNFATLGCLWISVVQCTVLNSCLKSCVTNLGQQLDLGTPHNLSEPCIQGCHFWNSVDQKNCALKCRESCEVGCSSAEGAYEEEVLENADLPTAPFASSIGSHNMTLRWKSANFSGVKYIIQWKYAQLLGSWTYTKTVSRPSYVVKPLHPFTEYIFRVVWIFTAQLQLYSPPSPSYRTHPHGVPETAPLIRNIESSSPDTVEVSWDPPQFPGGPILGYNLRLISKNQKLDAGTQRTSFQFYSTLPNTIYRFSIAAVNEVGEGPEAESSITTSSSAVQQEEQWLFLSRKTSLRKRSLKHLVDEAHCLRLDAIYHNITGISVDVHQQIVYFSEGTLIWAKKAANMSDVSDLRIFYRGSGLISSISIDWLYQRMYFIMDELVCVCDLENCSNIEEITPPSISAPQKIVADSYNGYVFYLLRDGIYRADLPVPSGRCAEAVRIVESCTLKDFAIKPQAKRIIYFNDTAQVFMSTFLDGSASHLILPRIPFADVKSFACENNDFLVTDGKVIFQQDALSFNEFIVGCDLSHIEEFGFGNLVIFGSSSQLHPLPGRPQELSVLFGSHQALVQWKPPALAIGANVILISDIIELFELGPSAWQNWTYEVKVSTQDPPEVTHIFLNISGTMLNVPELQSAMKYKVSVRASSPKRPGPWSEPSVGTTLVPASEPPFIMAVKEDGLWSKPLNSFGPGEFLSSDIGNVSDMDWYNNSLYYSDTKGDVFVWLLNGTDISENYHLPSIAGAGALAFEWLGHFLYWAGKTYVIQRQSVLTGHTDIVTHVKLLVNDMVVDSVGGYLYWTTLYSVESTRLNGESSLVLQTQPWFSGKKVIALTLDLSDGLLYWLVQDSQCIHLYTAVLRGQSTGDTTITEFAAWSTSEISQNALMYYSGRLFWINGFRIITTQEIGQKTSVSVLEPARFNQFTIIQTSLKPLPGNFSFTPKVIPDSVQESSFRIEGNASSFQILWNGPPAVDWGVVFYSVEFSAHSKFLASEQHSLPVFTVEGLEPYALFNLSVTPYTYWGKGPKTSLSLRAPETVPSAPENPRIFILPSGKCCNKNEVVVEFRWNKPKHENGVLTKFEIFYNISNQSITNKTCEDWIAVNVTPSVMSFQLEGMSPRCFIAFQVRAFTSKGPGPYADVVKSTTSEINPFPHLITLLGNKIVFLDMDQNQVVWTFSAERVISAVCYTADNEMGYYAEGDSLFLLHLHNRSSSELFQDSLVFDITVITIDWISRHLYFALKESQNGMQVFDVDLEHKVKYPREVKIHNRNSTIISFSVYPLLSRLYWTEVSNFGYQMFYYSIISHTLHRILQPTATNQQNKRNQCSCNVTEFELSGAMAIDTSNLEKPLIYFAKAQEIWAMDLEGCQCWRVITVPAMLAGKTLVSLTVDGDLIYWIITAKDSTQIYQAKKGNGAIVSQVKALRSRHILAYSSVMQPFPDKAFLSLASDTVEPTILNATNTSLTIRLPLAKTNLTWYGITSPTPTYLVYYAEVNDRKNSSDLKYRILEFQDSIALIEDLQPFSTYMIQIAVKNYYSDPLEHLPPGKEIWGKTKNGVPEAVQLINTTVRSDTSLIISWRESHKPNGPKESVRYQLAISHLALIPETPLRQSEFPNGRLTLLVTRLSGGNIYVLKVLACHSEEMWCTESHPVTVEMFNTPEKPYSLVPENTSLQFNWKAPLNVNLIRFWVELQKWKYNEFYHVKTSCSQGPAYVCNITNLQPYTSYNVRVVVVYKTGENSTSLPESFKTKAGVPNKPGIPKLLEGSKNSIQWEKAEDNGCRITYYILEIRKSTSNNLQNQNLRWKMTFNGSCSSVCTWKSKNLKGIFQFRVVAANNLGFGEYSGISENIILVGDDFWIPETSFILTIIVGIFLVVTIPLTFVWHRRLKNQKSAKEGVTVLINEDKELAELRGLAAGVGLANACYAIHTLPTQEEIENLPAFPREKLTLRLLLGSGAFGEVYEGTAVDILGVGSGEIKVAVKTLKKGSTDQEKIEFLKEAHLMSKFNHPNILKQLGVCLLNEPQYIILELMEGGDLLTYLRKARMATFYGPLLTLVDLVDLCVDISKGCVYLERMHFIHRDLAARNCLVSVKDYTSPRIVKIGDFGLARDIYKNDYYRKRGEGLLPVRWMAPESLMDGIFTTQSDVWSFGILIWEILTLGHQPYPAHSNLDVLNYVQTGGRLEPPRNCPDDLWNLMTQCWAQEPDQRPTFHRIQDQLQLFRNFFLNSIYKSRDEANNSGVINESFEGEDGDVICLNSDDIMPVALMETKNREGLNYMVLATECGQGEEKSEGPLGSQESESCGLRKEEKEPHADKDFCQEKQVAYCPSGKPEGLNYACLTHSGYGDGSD

Question: With `COCC(=O)NC/C=C/c1ccc2ncnc(Nc3ccc(Oc4ccc(C)nc4)c(C)c3)c2c1` [CP-724714] as the molecule, how does the % of control [1] read?
Answer: Its % of control is 100%.

Question: Which results are given for `N#Cc1cccc(-c2c[nH]c3ncnc(N4CCOCC4)c23)c1`?
Answer: % of control [2]: 100%; % of control [3]: 71%; % of control [4]: 72%

Question: How did the % of inhibition [5] turn out when `CN1Cc2nccc(-c3cn(C)nc3-c3ccc(F)cc3)c2C1=O` was run?
Answer: The % of inhibition was -3%.

Question: With `CC[C@@H]1[C@H](F)C(=O)N[C@@H]1COc1nccc2cc(C(N)=O)c(OC)cc12` [ZIMLOVISERTIB] as the molecule, how does the % of inhibition [6] read?
Answer: Its % of inhibition is -4.3%.
